From publication PMC9395488, “First-in-human study of IM156, a novel potent biguanide oxidative phosphorylation (OXPHOS) inhibitor, in patients with advanced solid tumors” (Investigational New Drugs, 2022)

Test system: patients with advanced solid tumors
Test: First-in-human phase 1 dose-escalation study: safety, DLTs, adverse events
Type: in vivo
Text: This multicenter first-in-human dose-escalation phase 1 study (clinicaltrials.gov identifier: NCT03272256) was designed to determine the MTD or RP2D and to evaluate the safety and tolerability of IM156. Secondary endpoints included PK characteristics, efficacy assessment (objective response rate [ORR], disease control rate [DCR], duration of response [DoR] and progression-free survival [PFS]). Furthermore, exploratory objectives included identification and profiling of IM156 metabolites, evaluations of exploratory PD markers of IM156, and evaluations of any potential relationship between putative biomarkers and safety/efficacy parameters of IM156. The study was conducted in accordance with Good Clinical Practice, the International Council for Harmonisation, and guidelines governing clinical study conduct and the ethical principles originating from the Declaration of Helsinki. The study was approved by each Institutional Review Board and patients provided written informed consent. Patients were enrolled at three sites in South Korea.
The initial dose and schedule of IM156 was chosen based on animal toxicology studies. […] IM156 was administered in the fasted state, with no food for at least 2 h before and 1 h after dosing.
Three DLT-evaluable patients were enrolled at each dose level. If there were no DLTs or other prohibitive adverse events (AEs), the Safety Committee was allowed to recommend escalation to the next highest dose level. If 1 DLT occurred in the first 3 DLT-evaluable patients, enrollment in that cohort was expanded to an additional 3 DLT-evaluable patients; if ≥ 2 DLTs were reported in a cohort, that dose was considered above the MTD.
Safety was assessed through vital signs, weight, laboratory assessments, physical examinations, electrocardiogram, and reporting of AEs as graded by the National Cancer Institute’s Common Terminology Criteria for Adverse Events v4.03 (NCI-CTCAE).
DLTs were defined as the following AEs if they were attributed as related to IM156: asymptomatic grade 4 neutropenia lasting for ≥ 5 days; febrile neutropenia, regardless of grade; grade 4 thrombocytopenia or grade 3 thrombocytopenia with bleeding; any grade ≥ 3 non-hematologic AE (except grade 3 hypertension and grade 3 nausea, vomiting or diarrhea for which proper measures for prevention and treatment were not implemented, and alopecia); blood lactate levels > 5 mmol; grade ≥ 2 AE prohibiting dosing of IM156 for ≥ 21 continuous days except for alterations in serum calcium or phosphorus levels. The safety analysis includes all patients who received at least one dose of study drug.
The safety population was defined as all patients who received at least one dose of IM156. The PK population was not defined in the protocol but included all patients with sufficient PK data to perform adequate PK modeling. The efficacy population included all patients who underwent at least one tumor imaging assessment while receiving IM156. Safety was assessed using descriptive statistics (e.g., DLTs, AEs, laboratory tests, physical examination, 12-lead ECG). The incidence and number of events were reported for the DLTs observed in Cycle 1 per dose group. […] Adverse events and TRAEs were standardized with the System Organ Class and the Preferred Term using the Medical Dictionary for Regulatory Activities v23.0. In addition, TEAEs, serious adverse events (SAEs), TEAE severity, and TEAEs leading to withdrawal were presented by dose group. Efficacy data were to be presented by Waterfall and Swim Lane plots. Time to event endpoints (e.g., DoR, PFS) were determined using Kaplan–Meier estimations with the median value for each endpoint summarized.

[1] = DL1 100 mg orally every other day (n=3)

NC(=Nc1ccc(OC(F)(F)F)cc1)N=C(N)N1CCCC1 [IM156]
Yes: SAE Abdominal distension: Dose Interrupted (100 mg QOD) | SAE Gastric Obstruction: Dose Interrupted (100 mg QOD) | SAE Cystitis: Dose Interrupted (800 mg QOD) | SAE Worsen abdominal pain: Dose Interrupted (800 mg QOD) | SAE Lethargy: Dose Interrupted (1,200 mg QD) | SAE Nausea: Dose Interrupted (1,200 mg QOD)
Possible: SAE Nausea: Causality (1,200 mg QOD)
Unlikely: SAE Abdominal distension: Causality (100 mg QOD) | SAE Gastric Obstruction: Causality (100 mg QOD) | SAE Ileus: Causality (200 mg QOD) | SAE Cystitis: Causality (800 mg QOD) | SAE Worsen abdominal pain: Causality (800 mg QOD) | SAE Akathisia: Causality (1,200 mg QD) | SAE Lethargy: Causality (1,200 mg QD) | SAE Perforated Appendicitis: Causality (1,200 mg QD)
3: SAE Gastric Obstruction: Grade (100 mg QOD) | SAE Ileus: Grade (200 mg QOD) | SAE Worsen abdominal pain: Grade (800 mg QOD) | SAE Perforated Appendicitis: Grade (1,200 mg QD) | SAE Nausea: Grade (1,200 mg QOD)
Resolved to Grade 1: SAE Worsen abdominal pain: Outcome (800 mg QOD)
No: SAE Ileus: Dose Interrupted (200 mg QOD) | SAE Akathisia: Dose Interrupted (1,200 mg QD) | SAE Perforated Appendicitis: Dose Interrupted (1,200 mg QD)
1: TEAE Abdominal distension, grade 2 (DL1 100 mg QOD (n=3)) | TEAE Ascites, grade 1 (DL1 100 mg QOD (n=3)) | TEAE Blood creatinine increased, grade 1 (DL1 100 mg QOD (n=3)) | TEAE Decreased appetite, grade 1 (DL1 100 mg QOD (n=3)) | TEAE Diarrhoea, grade 2 (DL1 100 mg QOD (n=3)) | TEAE Gastrointestinal pain, grade 2 (DL1 100 mg QOD (n=3)) | TEAE Hypoalbuminaemia, grade 2 (DL1 100 mg QOD (n=3)) | TEAE Large intestinal obstruction, grade 2 (DL1 100 mg QOD (n=3)) | TEAE Nausea, grade 1 (DL1 100 mg QOD (n=3)) | TEAE Obstruction gastric, grade 3 (DL1 100 mg QOD (n=3)) | TEAE Proctalgia, grade 2 (DL1 100 mg QOD (n=3)) | TEAE Pyrexia, grade 1 (DL1 100 mg QOD (n=3)) | TEAE Vomiting, grade 1 (DL1 100 mg QOD (n=3)) | TEAE Anaemia grade 2 [1]
0: TRAE Abdominal Pain, > G3 (patients) (DL1 100 mg QOD oral, N = 3) | TRAE Abdominal Pain, All grades (patients) (DL1 100 mg QOD oral, N = 3) | TRAE Blood Lactic Acid increased, > G3 (patients) (DL1 100 mg QOD oral, N = 3) | TRAE Blood Lactic Acid increased, All grades (patients) (DL1 100 mg QOD oral, N = 3) | TRAE Constipation, > G3 (patients) (DL1 100 mg QOD oral, N = 3) | TRAE Constipation, All grades (patients) (DL1 100 mg QOD oral, N = 3) | TRAE Decreased appetite, > G3 (patients) (DL1 100 mg QOD oral, N = 3) | TRAE Decreased appetite, All grades (patients) (DL1 100 mg QOD oral, N = 3) | TRAE Diarrhoea, > G3 (patients) (DL1 100 mg QOD oral, N = 3) | TRAE Diarrhoea, All grades (patients) (DL1 100 mg QOD oral, N = 3) | TRAE Fatigue, > G3 (patients) (DL1 100 mg QOD oral, N = 3) | TRAE Fatigue, All grades (patients) (DL1 100 mg QOD oral, N = 3) | TRAE Insomnia, > G3 (patients) (DL1 100 mg QOD oral, N = 3) | TRAE Insomnia, All grades (patients) (DL1 100 mg QOD oral, N = 3) | TRAE Nausea, > G3 (patients) (DL1 100 mg QOD oral, N = 3) | TRAE Nausea, All grades (patients) (DL1 100 mg QOD oral, N = 3) | TRAE Vomiting, > G3 (patients) (DL1 100 mg QOD oral, N = 3) | TRAE Vomiting, All grades (patients) (DL1 100 mg QOD oral, N = 3) | TEAE Adrenal insufficiency grade 1 [1] | TEAE Adrenal insufficiency grade 2 [1] | TEAE Adrenal insufficiency grade 3 [1] | TEAE Adrenal insufficiency grade 4 [1] | TEAE Anaemia grade 1 [1] | TEAE Anaemia grade 3 [1] | TEAE Anaemia grade 4 [1] | TEAE Appendicitis perforated grade 1 [1] | TEAE Appendicitis perforated grade 2 [1] | TEAE Appendicitis perforated grade 3 [1] | TEAE Appendicitis perforated grade 4 [1] | TEAE Back pain grade 1 [1] | TEAE Back pain grade 2 [1] | TEAE Back pain grade 3 [1] | TEAE Back pain grade 4 [1] | TEAE Cystitis grade 1 [1] | TEAE Cystitis grade 2 [1] | TEAE Cystitis grade 3 [1] | TEAE Cystitis grade 4 [1] | TEAE Dry skin grade 1 [1] | TEAE Dry skin grade 2 [1] | TEAE Dry skin grade 3 [1] | TEAE Dry skin grade 4 [1] | TEAE Flank pain grade 1 [1] | TEAE Flank pain grade 2 [1] | TEAE Flank pain grade 3 [1] | TEAE Flank pain grade 4 [1] | TEAE Hypertension grade 1 [1] | TEAE Hypertension grade 2 [1] | TEAE Hypertension grade 3 [1] | TEAE Hypertension grade 4 [1] | TEAE Hypotension grade 1 [1] | TEAE Hypotension grade 2 [1] | TEAE Hypotension grade 3 [1] | TEAE Hypotension grade 4 [1] | TEAE Insomnia grade 1 [1] | TEAE Insomnia grade 2 [1] | TEAE Insomnia grade 3 [1] | TEAE Insomnia grade 4 [1] | TEAE Pain in extremity grade 1 [1] | TEAE Pain in extremity grade 2 [1] | TEAE Pain in extremity grade 3 [1] | TEAE Pain in extremity grade 4 [1] | TEAE Pruritus grade 1 [1] | TEAE Pruritus grade 2 [1] | TEAE Pruritus grade 3 [1] | TEAE Pruritus grade 4 [1]
no trend: trend of blood lactate levels with dose or exposure (100 to 1,200 mg)
no DLTs: dose-limiting toxicities (DLTs), all dose levels (100 to 1,200 mg QOD or QD, cycle 1)
not well tolerated: tolerability (1,200 mg QD, due to nausea)
Recovered without sequelae: SAE Abdominal distension: Outcome (100 mg QOD) | SAE Gastric Obstruction: Outcome (100 mg QOD) | SAE Ileus: Outcome (200 mg QOD) | SAE Cystitis: Outcome (800 mg QOD) | SAE Akathisia: Outcome (1,200 mg QD) | SAE Lethargy: Outcome (1,200 mg QD) | SAE Perforated Appendicitis: Outcome (1,200 mg QD)
2: SAE Abdominal distension: Grade (100 mg QOD) | SAE Cystitis: Grade (800 mg QOD) | SAE Akathisia: Grade (1,200 mg QD) | SAE Lethargy: Grade (1,200 mg QD)
